Among the data in patent publication US20260365670A1, “EGFR INHIBITORS AND USES THEREOF” (DIZAL (JIANGSU) PHARMACEUTICAL CO., LTD., priority 2022, published 2026) are IC50 and GI50 values, retold here.

Molecules are shown by their SMILES. Read-outs that look alike come from different tables or passages of the source.

Broadly, the IC50 is the point on the concentration scale where inhibition reaches its midpoint.

Assay [1] deals with T1, EGFR[T790M/C797S/d746-750] (Homo sapiens, UniProt P00533, C797S/DEL746-750/T790M).
T1 construct: purchased Carna Bio
T1 sequence (P00533 with tags, fused parts or gaps DEL746-750/T790M/C797S limits assumed): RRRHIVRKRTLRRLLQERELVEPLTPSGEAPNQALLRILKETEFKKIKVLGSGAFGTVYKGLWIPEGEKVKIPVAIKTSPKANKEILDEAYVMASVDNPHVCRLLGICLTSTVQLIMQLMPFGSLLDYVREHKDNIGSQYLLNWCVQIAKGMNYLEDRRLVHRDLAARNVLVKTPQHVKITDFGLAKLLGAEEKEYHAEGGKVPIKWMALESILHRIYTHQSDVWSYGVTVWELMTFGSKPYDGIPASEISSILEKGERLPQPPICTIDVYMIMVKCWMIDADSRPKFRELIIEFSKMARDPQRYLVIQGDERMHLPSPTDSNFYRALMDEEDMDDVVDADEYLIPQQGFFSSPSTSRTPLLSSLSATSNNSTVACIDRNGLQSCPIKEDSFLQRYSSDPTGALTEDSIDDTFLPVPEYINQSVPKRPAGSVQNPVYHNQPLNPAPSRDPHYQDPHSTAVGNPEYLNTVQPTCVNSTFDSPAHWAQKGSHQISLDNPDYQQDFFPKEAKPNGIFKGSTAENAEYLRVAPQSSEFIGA
Nature of the assay: Inhibition of EGFR[T790M/C797S/d746-750] biochemical enzymatic activity (HTRF). The conditions noted are these: EGFR[T790M/C797S/d746-750], 1 mM ATP, 1 h at room temperature, read-out: IC50 @T790M - C797S - Del19. The method, boiled down: (§1)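 In a buffer with 5 mM MgCl2, 1 mM MnCl2, 1 mM DTT and 0.01% CHAPS, enzyme turnover of 1 μM biotinylated TK substrate at 1 mM ATP is followed by HTRF after 1 h at room temperature. IC50 is obtained by a four-parameter fit.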
(In TR-FRET formats the signal depends on donor and acceptor labels being close together.)

Assay [2] addresses T2, EGFR[T790M/C797S/L858R] (Homo sapiens, UniProt P00533, C797S/L858R/T790M).
T2 construct: purchased Carna Bio
Nature of the assay: Inhibition of EGFR[T790M/C797S/L858R] biochemical enzymatic activity (HTRF). As to conditions: EGFR[T790M/C797S/L858R], 1 mM ATP, 1 h at room temperature, read-out: IC50 @T790M- C797S - L858R. The method, boiled down:
as §1

Assay [3] deals with T3, EGFR Exon19Del (Homo sapiens, UniProt P00533, DEL746-750).
T3 construct: purchased Carna Bio
T3 sequence (P00533 with tags, fused parts or gaps DEL746-750 limits assumed): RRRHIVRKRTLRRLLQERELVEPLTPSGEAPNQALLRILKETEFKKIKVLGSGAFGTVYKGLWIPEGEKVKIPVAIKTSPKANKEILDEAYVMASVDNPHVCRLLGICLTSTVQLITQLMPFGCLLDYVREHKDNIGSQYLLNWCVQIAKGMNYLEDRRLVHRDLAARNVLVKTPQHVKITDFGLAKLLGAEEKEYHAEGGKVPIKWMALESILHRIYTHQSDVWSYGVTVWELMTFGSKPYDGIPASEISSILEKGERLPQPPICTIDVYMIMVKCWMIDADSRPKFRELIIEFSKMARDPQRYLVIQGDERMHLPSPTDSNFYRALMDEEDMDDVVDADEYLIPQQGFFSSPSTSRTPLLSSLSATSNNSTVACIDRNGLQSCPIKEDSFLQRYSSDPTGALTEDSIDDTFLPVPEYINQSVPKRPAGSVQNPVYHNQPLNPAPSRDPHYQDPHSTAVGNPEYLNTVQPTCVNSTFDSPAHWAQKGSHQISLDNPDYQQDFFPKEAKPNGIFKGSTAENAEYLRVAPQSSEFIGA
Nature of the assay: Inhibition of EGFR Exon19Del biochemical enzymatic activity (HTRF). The conditions noted are these: EGFR Exon19Del, 1 mM ATP, 1 h at room temperature, read-out: IC50 @Del19. The method, boiled down: as §1

Assay [4] addresses T4, EGFR L858R (Homo sapiens, UniProt P00533, L858R).
T4 construct: purchased Carna Bio
Nature of the assay: Inhibition of EGFR L858R biochemical enzymatic activity (HTRF). The conditions noted are these: 1 mM ATP, 1 h at room temperature, read-out: IC50 @L858R. Summed up: as §1

For assay [5], the target named is T5, EGFR (C797S L858R) (Homo sapiens, UniProt P00533, C797S/L858R).
T5 construct: purchased signalchem
T5 sequence (P00533 25-1210 C797S/L858R): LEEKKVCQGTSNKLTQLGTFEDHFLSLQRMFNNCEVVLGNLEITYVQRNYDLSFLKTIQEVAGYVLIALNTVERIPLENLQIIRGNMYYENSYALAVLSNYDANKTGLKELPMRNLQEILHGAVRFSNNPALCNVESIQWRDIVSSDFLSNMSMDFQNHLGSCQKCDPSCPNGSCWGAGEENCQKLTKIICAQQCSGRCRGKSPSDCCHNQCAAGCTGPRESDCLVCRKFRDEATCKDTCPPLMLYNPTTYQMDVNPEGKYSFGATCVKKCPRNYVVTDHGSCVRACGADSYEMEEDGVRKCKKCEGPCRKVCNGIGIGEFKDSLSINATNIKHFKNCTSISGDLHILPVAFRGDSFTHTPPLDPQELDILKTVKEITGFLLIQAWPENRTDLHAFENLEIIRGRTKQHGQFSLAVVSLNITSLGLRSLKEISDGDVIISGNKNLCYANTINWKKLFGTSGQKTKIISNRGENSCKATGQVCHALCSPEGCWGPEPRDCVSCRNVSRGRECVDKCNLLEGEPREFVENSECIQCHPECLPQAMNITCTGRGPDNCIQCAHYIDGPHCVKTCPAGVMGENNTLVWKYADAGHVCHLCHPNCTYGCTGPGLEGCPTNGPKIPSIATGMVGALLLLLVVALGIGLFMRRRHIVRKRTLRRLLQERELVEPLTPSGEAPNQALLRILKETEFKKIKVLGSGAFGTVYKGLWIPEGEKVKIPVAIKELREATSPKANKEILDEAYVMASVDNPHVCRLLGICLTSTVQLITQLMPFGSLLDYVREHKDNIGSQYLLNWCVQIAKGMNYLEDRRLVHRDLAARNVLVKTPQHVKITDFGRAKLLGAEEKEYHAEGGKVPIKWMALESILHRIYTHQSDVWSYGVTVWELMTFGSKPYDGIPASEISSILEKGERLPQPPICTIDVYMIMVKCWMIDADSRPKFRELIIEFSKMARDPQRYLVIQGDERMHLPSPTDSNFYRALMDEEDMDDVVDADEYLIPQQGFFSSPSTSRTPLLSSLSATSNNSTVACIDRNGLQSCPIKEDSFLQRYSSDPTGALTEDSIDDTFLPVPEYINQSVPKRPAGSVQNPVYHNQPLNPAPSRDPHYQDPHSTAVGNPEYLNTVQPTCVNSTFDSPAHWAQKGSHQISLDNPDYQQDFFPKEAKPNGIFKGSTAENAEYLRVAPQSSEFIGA
Description: Inhibition of EGFR (C797S L858R) biochemical enzymatic activity (HTRF). The conditions noted are these: EGFR (C797S L858R), 1 mM ATP, 1 h at room temperature, read-out: IC50 @L858-C797S. Summed up:
as §1

The target in assay [6] is T6, EGFR wild type (Homo sapiens, UniProt P00533).
T6 construct: purchased Carna Bio
Description: Inhibition of EGFR wild type biochemical enzymatic activity (HTRF). As to conditions: EGFR wild type, 1 mM ATP, 1 h at room temperature, read-out: IC50 @WT. The method, boiled down:
as §1

Assay [7] has as its target T7, EGFR (d746-750 C797S) (Homo sapiens, UniProt P00533, C797S/DEL746-750).
T7 construct: purchased signalchem
Description: Inhibition of EGFR (d746-750 C797S) biochemical enzymatic activity (HTRF). The conditions noted are these: EGFR (d746-750 C797S), 1 mM ATP, 1 h at room temperature, read-out: IC50 @Del19-C797S. Summed up:
as §1

Assay [8] has as its target T8, EGFR Exon19Del/T790M (Homo sapiens, UniProt P00533, DEL746-750/T790M).
T8 construct: purchased Carna Bio
Nature of the assay: Inhibition of EGFR Exon19Del/T790M biochemical enzymatic activity (HTRF). The conditions noted are these: EGFR Exon19Del/T790M, 1 mM ATP, 1 h at room temperature, read-out: IC50 @Del19-T790M. Summed up:
as §1

Assay [9] concerns the target T9, EGFR L858R/T790M (Homo sapiens, UniProt P00533, L858R/T790M).
T9 construct: purchased Carna Bio
Nature of the assay: Inhibition of EGFR L858R/T790M biochemical enzymatic activity (HTRF). The conditions noted are these: EGFR L858R/T790M, 1 mM ATP, 1 h at room temperature, read-out: IC50 @L858R-T790M. The method, boiled down:
as §1

For assay [10], the system named is PC-9. Nature of the assay: Cell proliferation assay, PC-9 cells (CellTiter-Glo, 72 hours). The conditions noted are these: PC9 cells, read-out: GI50 PC9. It counts as cell-based. Summed up:
(§2)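 GI50 is the concentration giving 50% proliferation inhibition. Growth for this was normalised to a baseline viability reading taken when compound was added, and to DMSO wells. PC-9 (500 cells/well) and mutant-EGFR Ba/F3 (5000 cells/well) are treated after overnight seeding in RPMI1640-based medium.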
(In general: Cellular ATP, detected with luciferase, serves as a proxy for viable cell number.)

The test system of assay [11] is Ba/F3 cells expressing EGFR mutations. Description: Cell proliferation assay, Ba/F3 cells expressing EGFR mutations (CellTiter-Glo, 72 hours). It counts as cell-based. The method, boiled down: as §2
Setting [12] is: BaF3 cells, EGFR DEL19 - C797S, read-out: GI50 DEL19 - C797S/BaF3.
The mark [13] stands for this setting: BaF3 cells, EGFR DEL19 - T790-C797S, read-out: GI50 DEL19 - T790-C797S/BaF3.
Where [14] appears, read: BaF3 cells, EGFR L858R - C797S, read-out: GI50 L858R - C797S/BaF3.
Setting [15] is: BaF3 cells, EGFR L858R - T790-C797S, read-out: GI50 L858R - T790-C797S/BaF3.
Setting [16] is: BaF3 cells, EGFR L858R - T790M, read-out: GI50 L858R - T790M/BaF3.
Setting [17] is: BaF3 cells, EGFR L858R, read-out: GI50 L858R/BaF3.
[18] abbreviates: EGFR DEL19 - T790M, read-out: GI50 DEL19 - T790M.

T2 sequence (P00533 25-1210 T790M/C797S/L858R): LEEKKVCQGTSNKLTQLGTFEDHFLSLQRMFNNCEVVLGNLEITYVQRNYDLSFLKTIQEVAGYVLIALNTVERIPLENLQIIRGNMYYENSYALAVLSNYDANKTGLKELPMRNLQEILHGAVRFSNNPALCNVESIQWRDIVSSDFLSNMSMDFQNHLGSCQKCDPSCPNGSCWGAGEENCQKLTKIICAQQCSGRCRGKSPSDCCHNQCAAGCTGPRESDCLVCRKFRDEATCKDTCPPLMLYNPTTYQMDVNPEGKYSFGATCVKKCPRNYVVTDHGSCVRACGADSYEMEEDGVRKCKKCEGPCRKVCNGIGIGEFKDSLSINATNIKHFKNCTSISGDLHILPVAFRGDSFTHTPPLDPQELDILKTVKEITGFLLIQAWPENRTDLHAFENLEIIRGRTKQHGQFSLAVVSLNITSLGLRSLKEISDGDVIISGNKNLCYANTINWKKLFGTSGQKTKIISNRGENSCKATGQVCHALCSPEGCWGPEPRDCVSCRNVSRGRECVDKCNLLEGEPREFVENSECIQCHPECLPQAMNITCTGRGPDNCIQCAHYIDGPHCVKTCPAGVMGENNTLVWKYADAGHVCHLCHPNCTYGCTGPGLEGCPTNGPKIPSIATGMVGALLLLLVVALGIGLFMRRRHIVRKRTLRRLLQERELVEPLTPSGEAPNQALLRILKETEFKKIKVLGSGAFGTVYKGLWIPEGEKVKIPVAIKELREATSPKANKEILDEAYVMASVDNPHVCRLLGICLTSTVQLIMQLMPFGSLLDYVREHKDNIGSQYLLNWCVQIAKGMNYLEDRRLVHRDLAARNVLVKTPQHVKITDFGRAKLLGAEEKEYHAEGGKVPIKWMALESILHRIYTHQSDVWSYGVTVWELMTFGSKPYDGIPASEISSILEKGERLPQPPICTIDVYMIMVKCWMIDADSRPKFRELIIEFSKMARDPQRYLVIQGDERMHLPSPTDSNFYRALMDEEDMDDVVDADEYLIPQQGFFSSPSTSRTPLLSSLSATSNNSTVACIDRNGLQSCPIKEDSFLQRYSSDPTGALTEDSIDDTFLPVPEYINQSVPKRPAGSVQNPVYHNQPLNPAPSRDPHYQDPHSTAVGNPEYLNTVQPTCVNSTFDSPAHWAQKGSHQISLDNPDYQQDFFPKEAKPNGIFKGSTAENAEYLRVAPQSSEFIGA
T7 sequence (P00533 with tags, fused parts or gaps DEL746-750/C797S limits assumed): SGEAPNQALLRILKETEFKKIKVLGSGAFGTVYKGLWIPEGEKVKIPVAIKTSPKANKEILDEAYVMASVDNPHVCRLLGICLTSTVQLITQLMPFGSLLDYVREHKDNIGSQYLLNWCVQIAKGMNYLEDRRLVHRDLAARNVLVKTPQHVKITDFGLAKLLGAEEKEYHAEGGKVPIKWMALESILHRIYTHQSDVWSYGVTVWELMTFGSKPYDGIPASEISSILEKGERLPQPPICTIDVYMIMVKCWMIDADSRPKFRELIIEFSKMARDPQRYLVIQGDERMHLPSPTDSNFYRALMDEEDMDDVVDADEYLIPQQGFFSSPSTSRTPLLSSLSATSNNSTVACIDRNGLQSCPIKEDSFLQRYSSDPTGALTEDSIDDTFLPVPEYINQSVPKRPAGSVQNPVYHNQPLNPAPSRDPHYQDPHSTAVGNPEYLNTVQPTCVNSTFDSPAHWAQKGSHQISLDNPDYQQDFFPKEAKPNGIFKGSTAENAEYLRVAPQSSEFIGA
T8 sequence (P00533 with tags, fused parts or gaps DEL746-750/T790M limits assumed): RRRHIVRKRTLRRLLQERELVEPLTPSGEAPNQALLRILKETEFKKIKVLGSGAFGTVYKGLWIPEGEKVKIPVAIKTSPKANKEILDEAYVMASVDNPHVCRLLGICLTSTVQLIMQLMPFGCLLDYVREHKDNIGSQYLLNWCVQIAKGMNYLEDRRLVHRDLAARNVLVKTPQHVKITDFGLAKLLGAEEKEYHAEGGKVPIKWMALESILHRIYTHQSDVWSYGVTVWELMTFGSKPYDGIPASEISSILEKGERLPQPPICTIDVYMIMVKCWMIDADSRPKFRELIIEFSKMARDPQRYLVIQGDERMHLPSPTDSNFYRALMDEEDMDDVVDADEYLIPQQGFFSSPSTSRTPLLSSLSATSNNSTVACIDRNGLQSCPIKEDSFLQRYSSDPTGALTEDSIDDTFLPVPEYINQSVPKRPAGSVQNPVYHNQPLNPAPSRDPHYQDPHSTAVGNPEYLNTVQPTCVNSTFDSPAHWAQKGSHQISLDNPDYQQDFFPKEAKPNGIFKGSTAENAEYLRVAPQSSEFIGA

On to `Cc1cc2cc(n1)-c1cnn(C)c1OCCN1CC3CCC(C3)(C1)n1c(nc3ccc(N4CCC5(CCN(C)CC5)C4)cc31)NC2=O` (single isomer, unassigned) [Example B51A], for which the IC50 is 1100 nM in assay [1]; greater than 5000 nM in assay [2]; greater than 5000 nM in assay [3]; greater than 5000 nM in assay [4]; greater than 5000 nM in assay [5]; greater than 5000 nM in [6]. Also, the results for the IC50 in assay [7], in assay [8] and in assay [9] were greater than 5000 nM, 3370 nM and greater than 5000 nM, respectively. For the same compound, the GI50 in assay [10] came to 3020 nM; in assay [11] (setting [12]), 357 nM; in assay [11] (setting [13]) it was 615 nM; in [11] (setting [14]), 1080 nM; in assay [11] (setting [15]) it was 124 nM; in assay [11] (setting [16]), 383 nM. Moreover, the GI50 was 2850 nM in [11] (setting [17]) and 530 nM in assay [11] (setting [18]).
For `Cc1cc2cc(n1)-c1cnn(C)c1OCCN1CC3CCC(C3)(C1)n1c(nc3ccc(N4CC5CC4CN5C)cc31)NC2=O` (single isomer, unassigned) [Example B53A], the half-inhibitory concentration (IC50) in assay [1] is 1080 nM; in assay [2], greater than 5000 nM; in assay [3] it was greater than 5000 nM; in assay [4] it was greater than 5000 nM; in assay [5], greater than 5000 nM; in assay [6], greater than 5000 nM. Also, the IC50 in [7] is 4350 nM; in assay [8], 3320 nM; in assay [9], greater than 5000 nM. The GI50 in [10] worked out at 3040 nM; in assay [11] (setting [12]), 348 nM; in [11] (setting [13]), 419 nM; in [11] (setting [14]), 1070 nM; in [11] (setting [15]), 91 nM; in [11] (setting [16]), 383 nM. The GI50 in assay [11] (setting [17]) was found to be 2570 nM; in assay [11] (setting [18]), 388 nM.
Regarding `CCN1CCN(c2ccc3nc4n(c3c2)C23CCC(CN(CCOc5c(cnn5C)-c5cc(cc(C)n5)C(=O)N4)C2)C3)CC1` (single isomer, unassigned) [Example B56A], the half-maximal inhibitory concentration (IC50) in assay [1] was 360 nM; in assay [2], greater than 5000 nM; in assay [3] it was 3180 nM; in [4], greater than 5000 nM; in [5], greater than 5000 nM; in assay [6], greater than 5000 nM. The results for the IC50 in assay [7], in assay [8] and in [9] were 2390 nM, 1320 nM and greater than 5000 nM, respectively. In addition, the GI50 in assay [10] came to 443 nM; in assay [11] (setting [12]), 82 nM; in [11] (setting [13]), 145 nM; in assay [11] (setting [14]) it was 417 nM; in assay [11] (setting [15]) it was 58 nM; in assay [11] (setting [16]), 80 nM. For the same compound, the GI50 in assay [11] (setting [17]) came out at 1030 nM; in assay [11] (setting [18]), 230 nM.
With `Cc1cc2cc(n1)-c1cnn(C)c1OCCN1CC3CCC(C3)(C1)n1c(nc3ccc(N4CCN(C(C)C)CC4)cc31)NC2=O` (single isomer, unassigned) [Example B57A], the IC50 in assay [1] is 792 nM; in assay [2], greater than 5000 nM; in assay [3], greater than 5000 nM; in [4], greater than 5000 nM; in [5], greater than 5000 nM; in [6] it was greater than 5000 nM. Besides, the 50% inhibitory concentration (IC50) in [7] is greater than 5000 nM; in [8], 1770 nM; in [9], greater than 5000 nM. Besides, the GI50 was 941 nM in assay [10]; 208 nM in assay [11] (setting [12]); 428 nM in [11] (setting [13]); 829 nM in assay [11] (setting [14]); 147 nM in [11] (setting [15]); 324 nM in assay [11] (setting [16]). Also, the GI50 in [11] (setting [17]) came out at 2000 nM; in assay [11] (setting [18]), 612 nM.
On to `Cc1cc2cc(n1)-c1cnn(C)c1OCCN1CC3CCC(C3)(C1)n1c(nc3ccc(N4CCC(N5CCN(C)CC5)CC4)cc31)NC2=O` (single isomer, unassigned) [Example B59A], for which the IC50 in assay [1] is 514 nM; in assay [2], greater than 5000 nM; in assay [3], greater than 5000 nM; in [4], greater than 5000 nM; in assay [5], greater than 5000 nM; in [6] it was greater than 5000 nM. Moreover, the values for the IC50 in assay [7], in assay [8] and in assay [9] were greater than 5000 nM, 1140 nM and greater than 5000 nM, respectively. In addition, the GI50 in assay [10] was 930 nM; in assay [11] (setting [12]) it was 227 nM; in assay [11] (setting [13]), 474 nM; in assay [11] (setting [14]), 751 nM; in assay [11] (setting [15]), 144 nM; in assay [11] (setting [16]), 299 nM. Besides, the GI50 came out at 1130 nM in assay [11] (setting [17]) and 788 nM in [11] (setting [18]).
On to `Cc1cc2cc(n1)-c1cnn(C)c1OCCN1CC3CCC(C3)(C1)n1c(nc3ccc(N4CCC(N5CCN(C)CC5)CC4)cc31)NC2=O` (single isomer, unassigned) [Example B59B], for which the IC50 in assay [1] is 6.1 nM; in assay [2], 4.4 nM; in assay [3], 12 nM; in [4], 27 nM; in [5], 9.5 nM; in assay [6], 360 nM. The IC50 stood at 5 nM in assay [7], 10 nM in [8] and 7.7 nM in assay [9]. For the same compound, the GI50 is 32 nM in assay [10]; 11 nM in assay [11] (setting [12]); 12 nM in assay [11] (setting [13]); 27 nM in assay [11] (setting [14]); 3 nM in assay [11] (setting [15]); 11 nM in [11] (setting [16]). Also, the figures for the GI50 in assay [11] (setting [17]) and in [11] (setting [18]) were 36 nM and 13 nM, respectively.
